According to publication PMC11143095, “Chemically engineered essential oils prepared through thiocyanation under solvent-free conditions: chemical and bioactivity alteration” (Natural Products and Bioprospecting, 2024):

Molecular target: T1, AChE from Electrophorus electricus (Electrophorus electricus, UniProt O42275)
T1 construct: purchased Sigma-Aldrich (St. Louis, MO, USA)
Test: biochemical
Conditions: for IC50: Ellman's reagent, microplate, 37 °C, pH 7.5, read-out: half maximal inhibitory concentration (IC50) against AChE
Method: Microplate assays utilizing Ellman’s reagent were performed to quantitatively assess the inhibitory activity of the isolated compounds against AChE [67].
Ammonium thiocyanate, sodium thiosulfate pentahydrate, anhydrous sodium sulfate and iodine were purchased from Cicarelli Laboratorios (San Lorenzo, Santa Fe). AChE from Electrophorus electricus EC 3.1.1.7, Fast blue salt B (FBB), α-naphthol, α-naphthyl acetate (α-NAc), and CDCl3, were purchased from Sigma-Aldrich (St. Louis, MO, USA). Acetonitrile (LCMS grade) was acquired from Carlo Erba Reagents (Val de Reuil, France) and formic acid from Merck. Aluminium TLC sheets coated with Silica gel 60 F were purchased from Merck (Darmstadt, Germany). Agar was purchased from Britania (Bs. As., Argentina).
Inhibition percentage determinations were carried out using the method applied by Osella et al.. Wells were filled in triplicate with AChE solution (in 0.1 M phosphate buffer, pH 7.5, and 13.7 µU/mL end concentration per well), Ellman’s reagent (DTNB, 5,5dithio-bis-(2-nitrobenzoic acid)), the same buffer solution (0.31 mM end concentration per well) and 10 µL of test compound in DMSO solution (0.05 µM end concentration per well). […] The enzymatic reaction was initiated by addition of acetylthiocholine iodide (0.46 mM end concentration per well). The final volume per well was 270 µL. The plate was shaken for 2 s and the increase in absorbance at 405 nm was monitored at 37 °C for 15 min. For IC50 determination, ten serial dilutions of the compounds were prepared in DMSO, following equally spaced points on a neperian logarithm scale, starting at 2.16 mM and finishing at 0.00023 mM (end concentration per well: 80.00 to 0.00839 µM). IC50 calculated using Prism V5.01 (GraphPad Software Inc., La Jolla, CA, USA) applying a non linear regression curve fit for a log[inhibitor] vs. normalized answer model with variable slope.

T1 sequence (O42275 24-633): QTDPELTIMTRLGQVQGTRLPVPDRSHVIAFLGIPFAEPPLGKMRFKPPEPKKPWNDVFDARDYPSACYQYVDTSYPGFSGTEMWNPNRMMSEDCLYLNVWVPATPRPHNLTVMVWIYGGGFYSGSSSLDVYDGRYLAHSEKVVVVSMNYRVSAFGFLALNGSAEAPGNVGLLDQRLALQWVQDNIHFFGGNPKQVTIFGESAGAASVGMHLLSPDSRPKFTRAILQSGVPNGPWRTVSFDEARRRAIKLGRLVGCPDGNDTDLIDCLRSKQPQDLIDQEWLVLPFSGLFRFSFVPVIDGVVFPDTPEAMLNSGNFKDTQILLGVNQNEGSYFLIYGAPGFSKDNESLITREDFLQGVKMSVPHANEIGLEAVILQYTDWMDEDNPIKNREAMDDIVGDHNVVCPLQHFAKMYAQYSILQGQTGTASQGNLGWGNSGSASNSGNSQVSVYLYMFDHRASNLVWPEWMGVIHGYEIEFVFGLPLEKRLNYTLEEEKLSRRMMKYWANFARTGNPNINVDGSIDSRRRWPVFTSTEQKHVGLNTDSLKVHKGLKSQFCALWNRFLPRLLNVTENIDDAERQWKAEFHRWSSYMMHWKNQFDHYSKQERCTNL

Row | Structure (SMILES) | activity against AChE (in words) | IC50 [µM]
1 | Cc1ccc(C(C)C)cc1O [carvacrol, reference compound] | inactive | 
2 | Cc1cc(SC#N)c(C(C)C)cc1O [compound 1, 5-isopropyl-2-methyl-4-thiocyanatophenol] |  | 4.086 ± 0.035
3 | Cc1cc(Sc2cc(C)c(O)cc2C(C)C)c(C(C)C)cc1O [compound 2, 4,4′-thiobis(5-isopropyl-2-methylphenol)] |  | 0.158 ± 0.059
4 | Cc1cc(Sc2nsc(-c3cc(C)c(O)cc3C(C)C)n2)c(C(C)C)cc1O [compound 3, 4-((5-(4-hydroxy-2-isopropyl-5-methylphenyl)-1,2,4-thiadiazol-3-yl)thio)-5-isopropyl-2-methylphenol] |  | 0.056 ± 0.025
5 | Cc1cc(Sc2nsc(Sc3cc(C)c(O)cc3C(C)C)n2)c(C(C)C)cc1O [compound 4] |  | 0.034 ± 0.016
